Data reported in article PMC9142559 (2022).

How the values were obtained:
[1] = system: yjdF TLC (T-loop chimera, Streptococcus ratti) (RNA, riboswitch) GGUAUAAAAACACAUUGCAGUUGGUAGUCUGCAAGCAUCAUCAGAUGUCAGUAACCGGUUCGAAUCCGGUCGUCCCAUACC; experiment: ligand fluorescence titration with RNA; conditions: 100 mM K+, 5 mM Mg2+; 20 mM Mops pH 7.0, 10 μM EDTA, 50 nM harmine; biphasic two-site Hill fit, site not stated; nearly identical to wt
[2] = system: yjdF wt aptamer domain (Streptococcus ratti) (RNA, riboswitch) GGUAUAAAAACACAUUGCAGUUGGUAGUCUGCAAGCAUCAUCAGAUGUCAGUAACCUUCCCUCCAAGGUCGUCCCAUACC; experiment: ligand fluorescence titration with RNA; conditions: 100 mM K+, 5 mM Mg2+; 20 mM Mops pH 7.0, 10 μM EDTA, 50 nM harmine; biphasic two-site Hill fit, site not stated
[3] = system: yjdF wt aptamer domain (Staphylococcus aureus) (RNA, riboswitch) UAGAAGUGUAAAAACACAAUUGGGUUGGUAGUCCCAAUGCAGUUUUAAAACUGUCAGUAACCUUCCUCCUCGGGUUGUCCGUCAUUUCUA; experiment: ribosome filter binding (ligand-dependent); conditions: 100 mM NH4+, 5 mM Mg2+; 20 mM Hepes pH 7.0, 0.5 mM spermine; indirect
[4] = system: circΔP3 (circ∆L3) (RNA, riboswitch) GAUGUCAGUAACCUUCCCUCCAAGGUCGUCCCAUACCGUUCGCGGUAUAAAAACACAUUGCAGUUGGUAGUCUGCAAGCAUC; experiment: ligand fluorescence titration with RNA; conditions: 100 mM K+, 5 mM Mg2+; 20 mM Mops pH 7.0, 10 μM EDTA, 50 nM harmine; biphasic two-site Hill fit, site not stated; nearly identical to wt
[5] = system: yjdF wt aptamer domain (Enterococcus pallens) (RNA, riboswitch) CGAGCAUAAAAACACGAGGCGGUUGGUAGUCCGCCGCAUGAAAAUGUCAGUAGCCUUCCCUCCCGGGUCGUCCAUUGCUCG; experiment: SEC (ligand-dependent folding); conditions: 100 mM K+, 5 mM Mg2+; 20 mM Mops pH 7.0, 10 μM EDTA; 60 nM chelerythrine in running buffer; indirect
[6] = system: yjdF wt aptamer domain (Streptococcus ratti) (RNA, riboswitch) GGUAUAAAAACACAUUGCAGUUGGUAGUCUGCAAGCAUCAUCAGAUGUCAGUAACCUUCCCUCCAAGGUCGUCCCAUACC; experiment: SHAPE probing (protection of A4, A5); conditions: 150 mM K+, 3 mM Mg2+; 20 mM MOPS-KOH pH 7.0, 10 μM EDTA, 2.5 μM ligand, 21 °C
[7] = system: yjdF wt aptamer domain (Streptococcus ratti) (RNA, riboswitch) GGUAUAAAAACACAUUGCAGUUGGUAGUCUGCAAGCAUCAUCAGAUGUCAGUAACCUUCCCUCCAAGGUCGUCCCAUACC; experiment: ligand fluorescence emission (10-fold increase, 25 nm shift); conditions: 100 mM K+, 5 mM Mg2+; 20 mM Mops pH 7.0, 10 μM EDTA, 50 nM ligand, 20 °C
[8] = system: yjdF wt aptamer domain (Staphylococcus aureus) (RNA, riboswitch) UAGAAGUGUAAAAACACAAUUGGGUUGGUAGUCCCAAUGCAGUUUUAAAACUGUCAGUAACCUUCCUCCUCGGGUUGUCCGUCAUUUCUA; experiment: SAXS; ribosome filter binding (ligand-dependent); conditions: 100 mM K+, 2.5 mM Mg2+ (SAXS); 20 mM Mops pH 7.0 (SAXS)
[9] = system: yjdF wt aptamer domain (Streptococcus ratti) (RNA, riboswitch) GGUAUAAAAACACAUUGCAGUUGGUAGUCUGCAAGCAUCAUCAGAUGUCAGUAACCUUCCCUCCAAGGUCGUCCCAUACC; experiment: ligand fluorescence emission (10-fold increase); conditions: 100 mM K+, 5 mM Mg2+; 20 mM Mops pH 7.0, 10 μM EDTA, 50 nM ligand, 20 °C

Row | binding [1] | Kd [2] [nM] | binding [3] | binding [4] | binding [5] | binding [6] | binding [7] | binding [8] | binding [9] | Compound
1 | yes | 230 ± 30 | yes | yes |  |  |  |  |  | COc1ccc2c(c1)[nH]c1c(C)nccc12
2 |  |  |  |  | yes | yes | yes | yes |  | COc1ccc2c(c[n+](C)c3c4cc5c(cc4ccc23)OCO5)c1OC
3 |  |  |  |  |  | yes |  |  | yes | C[n+]1cc2c3c(ccc2c2ccc4cc5c(cc4c21)OCO5)OCO3
